Measured values as given in patent US20240239801A1, “PYRIMIDO[5,4,D]PYRIMIDINE COMPOUNDS, COMPOSITIONS COMPRISING THEM AND USES THEREOF” (Université de Montréal, priority 2021, published 2024).

Tests used:
HCT116 pERK = assay: Phospho-ERK inhibition, AlphaLISA SureFire Ultra p-ERK 1/2; assay type: cell-based, human; details: for HCT116 (Ymin %): lowest value of the pERK IC50 curve
Procedure: (§1) All cancer cell lines (A375, A101D, A2058, RKO, HT29 SK-MEL 30, IPC298, HepG2, HCT-116, Lovo, SW620, SW480, NCI-H358, NCI-H2122, Calu-6, NCIH2087, NCIH1755, NCIH1666 and Mewo) were obtained from ATCC and cultured in RPMI-1640 medium (Gibco) supplemented with 5% heat inactivated fetal bovine serum (FBS, Wisent) at 37° C. under 5% CO2. Cells were maintained in T175 flasks (Greiner). They were passaged by removing the culture medium, washing once in 10 mL of room temperature Phosphate Buffered Saline (PBS; Wisent) and incubating at 37° C. with 2 mL of 0.05% Trypsin (Thermo-Fisher). Trypsin was then inactivated by adding complete growth medium and the cells were then replated in a T175 culture dish at the appropriate dilution. All cell lines were routinely tested for mycoplasma contamination. Tissue type and mutational status of each cell line can be found in Table B.
(§2) AlphaLISA® SureFire® Ultra™ p-ERK ½ (Thr202/Tyr204) analysis was conducted on cells plated in 100 μL of complete RPMI-1640 growth medium in 96-well flat-bottomed transparent dishes (Costar) at a density indicated in Table C. Cells were maintained overnight at 37° C. under 5% CO2 before treatment with compounds' dilution series for one hour. The cell density in cells/cm^2 corresponds to cell number divided by the area of one well of a 96-well plate ([…]).
(§3) In a dilution series 100 μL/well of test substance dilution prepared in complete RPMI-1640 growth media was added to the cells. The dilution series is selected so that ten concentrations cover a range from 30 μM or 10 μM to 0.33 nM. If necessary, the initial concentration of 10 μM is increased to 100 μM or lowered to 1 μM (as in the case of A375 and NCIH1666 cells, which are generally more sensitive to the compounds) and further dilution is carried out accordingly. The final concentration of DMSO in the assay is set at 0.5%.
(§4) After treatment, media was removed, and cells were lysed in 50 μL of 1× AlphaScreen Ultra Lysis Buffer (Perkin Elmer). The AlphaLISA® SureFire® Ultra™ p-ERK ½ (Thr202/Tyr2O4) (PerkinElmer) reactions were performed with 5 μL of cell lysate according to the manufacturer's specifications in 384-well proxyplates (Perkin Elmer) followed by overnight incubation of the reactions at room temperature in a humidified chamber. After completion of the reactions, the signals were recorded on an EnVision plate reader (Perkin Elmer) using built in AlphaLISA® settings.
(§5) The effect of each compound dilution on the pERK signal was expressed in % inhibition and calculated as follows. An internal 100% inhibition control (1 μM trametinib, cat. No. HY-10999; MedChem Express; CAS No. 871700-17-3) was included in each plate and used as a measure of pERK background. First, the value obtained for trametinib was subtracted from each data point. The average of DMSO (vehicle) controls (set as 0% inhibition) was established and used to calculate % inhibition:
(§6) The ability of each compound to inhibit pERK signal was expressed as an IC50 value obtained by plotting the inhibition values for each data point of a dilution series and fitting the obtained curves using a log(agonist) versus response−variable slope (four parameters) function using GraphPadPrism (V7.0).
(§7) When present, paradoxical pERK induction is inferred from the negative % inhibition values observed in the pERK IC50 curves of a compound.

SW480 pERK = assay: as above; assay type: cell-based, human; details: SW480 cells
Procedure: as §1, §2, §3, §4, §5, §6, §7

BRAF = molecular target: T1, BRAF (Homo sapiens, UniProt P15056); assay: BRAF kinase activity assay (ADP-Glo); assay type: biochemical
T1 construct: GST; purchased Millipore Sigma B4062-10UG
Procedure: (§8) Compound preparation: solid samples of each substances in 1dram vials were suspended in DMSO (Fisher Scientific) at a stock concentration of 20 mM. Stocks were kept at −20° C. and protected from light. If solubility of the compound at 20 mM appeared to be an issue, the initial concentration of the DMSO stock was changed to 10 mM or 5 mM.
(§9) In vitro enzymatic reactions were used for evaluating compounds intrinsic activity against BRAF, CRAF and ARAF. For BRAF and CRAF, 0.375 nM of purified GST-tagged kinases (cat #B4062-10UG and cat #R1656-10UG respectively from Millipore Sigma) were incubated with 75 nM of kinase-dead MEK1 substrate (cat #40075; BPS Bioscience) in the presence of 10 μM of Ultrapure ATP (cat #V9102; Promega; part V915A) with and without the test compound in a buffer containing 50 mM HEPES pH 7.5, 10 mM MgCl2, 1 mM EDTA, 0.01% Brij-35 and 2 mM DTT. Separate reactions were performed with the MEK1 substrate and ATP as a blank control. ARAF, kinase reactions were rigorously the same with the exception that kinase concentration was raised to 3.75 nM (cat #1768-0000-1; Reaction Biology).
(§10) For compound treatment, 5 μL/well of test substance solution are placed in a 384-well proxyplate (Perkin Elmer) and mixed with 2× concentrated kinase reactions. The dilution series is selected so that nine concentrations cover a range from 100 nM to 0.01 nM. […] The final concentration of DMSO in the assay is set at 0.05%.
(§11) BRAF and CRAF kinase reactions were carried out for a total of 2 hours at 30° C. and then stopped by ½ dilution in ADP-Glo Reagent (cat #V9102; Promega; part V912C). Reactions were then incubated for 1 h at room temperature before addition of one volume of Kinase Detection Reagent (cat #V9102; Promega; part V917A). Plates were then equilibrated at room temperature for 30 minutes before detection of luminescence on a Synergy Neo2 plate reader (Biotek). The effect of each compound dilution on BRAF and CRAF kinase activity was expressed as % inhibition and calculated as follows. First, the internal 100% inhibition control (average of luminescence in kinase reactions comprising kinase dead MEK1 substrate alone) was subtracted from each data point. The average of DMSO (vehicle) controls (set as 0% inhibition) was established and used to calculate % inhibition:
(§12) IC50 values were obtained by plotting the kinase inhibition values and fitting the dose-activity curves using a log(agonist) versus response−variable slope (four parameters) function using either GraphPadPrism (V7.0) or Dotmatics Screening Ultra platform. Standards included in the ARAF kinase assay were Belvarafenib (MedChem Express cat #HY-109080; CAS #1446113-23-0), LXH254 (MedChem Express cat #HY-112089; CAS #1800398-38-2) and BGB283 (cat #HY-18957; CAS #1446090-79-4).

CRAF = CRAF (Homo sapiens, UniProt P04049); assay: CRAF kinase activity assay (ADP-Glo); assay type: biochemical
Procedure: as §8, §9, §10, §11, §12

[1] = Homo sapiens, HCT-116, Table 3, 1 h treatment

CRAF, sequence (P04049 whole entry): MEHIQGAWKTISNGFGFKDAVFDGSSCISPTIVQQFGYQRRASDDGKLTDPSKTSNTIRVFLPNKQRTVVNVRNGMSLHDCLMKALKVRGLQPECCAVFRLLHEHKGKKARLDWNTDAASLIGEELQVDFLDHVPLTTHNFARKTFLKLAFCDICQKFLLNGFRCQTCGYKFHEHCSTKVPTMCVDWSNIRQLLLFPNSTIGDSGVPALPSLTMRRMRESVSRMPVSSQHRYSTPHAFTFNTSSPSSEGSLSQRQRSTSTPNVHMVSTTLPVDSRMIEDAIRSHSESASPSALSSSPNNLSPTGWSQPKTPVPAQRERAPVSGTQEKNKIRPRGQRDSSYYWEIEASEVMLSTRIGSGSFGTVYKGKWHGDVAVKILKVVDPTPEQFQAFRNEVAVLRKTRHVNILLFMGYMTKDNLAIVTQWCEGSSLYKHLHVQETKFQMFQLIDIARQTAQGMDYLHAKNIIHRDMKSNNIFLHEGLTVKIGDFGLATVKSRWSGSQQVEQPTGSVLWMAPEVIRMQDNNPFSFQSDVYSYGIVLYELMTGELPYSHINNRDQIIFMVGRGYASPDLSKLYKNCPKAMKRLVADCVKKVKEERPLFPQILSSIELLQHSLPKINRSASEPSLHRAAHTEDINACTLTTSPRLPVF
T1 sequence (P15056 whole entry): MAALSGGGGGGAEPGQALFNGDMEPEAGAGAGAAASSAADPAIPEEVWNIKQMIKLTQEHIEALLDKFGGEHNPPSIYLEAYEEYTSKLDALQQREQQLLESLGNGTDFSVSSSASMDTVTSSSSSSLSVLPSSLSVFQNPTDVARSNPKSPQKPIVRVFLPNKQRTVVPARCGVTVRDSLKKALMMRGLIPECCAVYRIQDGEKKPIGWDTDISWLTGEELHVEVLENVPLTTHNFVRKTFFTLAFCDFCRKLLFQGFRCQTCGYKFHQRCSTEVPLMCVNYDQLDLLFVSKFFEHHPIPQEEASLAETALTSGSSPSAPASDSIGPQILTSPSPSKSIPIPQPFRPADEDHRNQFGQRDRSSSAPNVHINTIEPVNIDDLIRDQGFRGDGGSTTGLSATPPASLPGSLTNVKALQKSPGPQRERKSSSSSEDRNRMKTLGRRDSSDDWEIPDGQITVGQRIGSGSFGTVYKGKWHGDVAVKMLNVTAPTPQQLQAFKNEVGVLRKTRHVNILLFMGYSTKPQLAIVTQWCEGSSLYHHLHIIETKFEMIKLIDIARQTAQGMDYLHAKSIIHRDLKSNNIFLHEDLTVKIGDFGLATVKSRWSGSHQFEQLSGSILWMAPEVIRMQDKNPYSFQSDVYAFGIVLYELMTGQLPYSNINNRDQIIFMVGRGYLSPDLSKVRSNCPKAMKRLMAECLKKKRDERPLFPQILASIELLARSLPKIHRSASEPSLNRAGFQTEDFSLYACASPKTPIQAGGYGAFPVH

IC50 (BRAF; Table 3) [nM] | IC50 (CRAF; Table 3) [nM] | IC50 (HCT116 pERK; Table 3, 1 h treatment) [nM] | SMILES | HCT116 (Ymin %) (HCT116 pERK; Table 3) | other results
 |  |  | COc1ccc(S(=O)(=O)Nc2ccc(F)c(Nc3ncnc4cnc(SC)nc34)c2Cl)cc1 [Example 89] |  | IC50 (HCT116 pERK; HCT116 cells, pERK): 10000 to 30000 nM; HCT116 pERK % Ymin (lowest value of the IC50 curve) (HCT116 pERK; HCT116 cells, value in brackets, Ymin above −20% = minimal or no paradoxical induction): −5%; IC50 (SW480 pERK; pERK, read-out: SW480 PERK IC50): 10000 to 30000 nM; SW480 pERK % Ymin (lowest value of the IC50 curve) (SW480 pERK; value in brackets, Ymin above −20% = minimal or no paradoxical induction): 3.5%
 |  |  | CSc1ncc2ncnc(Nc3c(F)ccc(NS(=O)(=O)c4cccc(F)c4C)c3F)c2n1 [Example 90] |  | IC50 (BRAF; Table 2): 1 to 10 nM; IC50 (HCT116 pERK; Homo sapiens, HCT-116, Table 2, 1 h treatment): 1000 to 10000 nM
 |  |  | COc1ccc(S(=O)(=O)Nc2ccc(F)c(Nc3ncnc4cnc(SC)nc34)c2F)c(C)c1F [Example 91] |  | IC50 (BRAF; Table 2): > 10 nM; IC50 (CRAF; Table 2): 10 to 50 nM; IC50 (HCT116 pERK; Table 2, 1 h treatment): 1000 to 10000 nM; HCT116 (Ymin %) (HCT116 pERK; Table 2): −8%
 |  |  | COc1ccc(S(=O)(=O)Nc2ccc(F)c(Nc3ncnc4cnc(SC)nc34)c2F)c(C)c1Cl [Example 92] |  | IC50 (BRAF; Table 2): 1 to 10 nM; IC50 (HCT116 pERK; Table 2, 1 h treatment): 1000 to 10000 nM; HCT116 (Ymin %) (HCT116 pERK; Table 2): −12%
1 to 10 | < 10 | < 500 | Cc1c(F)cccc1S(=O)(=O)Nc1ccc(F)c(Nc2ncnc3cnc(-n4nnc5c(N)cccc54)nc23)c1F [Example 93] | 1.3% | 
1 to 10 | < 10 | < 500 | Nc1cccc2c1nnn2-c1ncc2ncnc(Nc3c(F)ccc(NS(=O)(=O)c4cccc(Cl)c4Cl)c3F)c2n1 [Example 94] | 7.7% | 
< 1 | < 10 |  | Cc1c(F)cccc1S(=O)(=O)Nc1ccc(F)c(Nc2ncnc3cnc(-n4cc(S(=O)(=O)N5CCN(C)CC5)c5ccccc54)nc23)c1F [Example 96] |  | IC50 (HCT116 pERK; [1]): < 500 nM
< 1 | 10 to 50 | < 500 | Cc1c(F)cccc1S(=O)(=O)Nc1ccc(F)c(Nc2ncnc3cnc(-n4cc(C(=O)N(C)C)c5ccccc54)nc23)c1F [Example 97] | −6.3% | 
< 1 | 10 to 50 |  | Cc1c(F)cccc1S(=O)(=O)Nc1ccc(F)c(Nc2ncnc3cnc(-n4cc(C(=O)N5CCN(C)CC5)c5ccccc54)nc23)c1F [Example 99] | (−3.6) % | 
< 1 | 10 to 50 | < 500 | Cc1c(F)cccc1S(=O)(=O)Nc1ccc(F)c(Nc2ncnc3cnc(-n4cc(C(=O)N5CCOCC5)c5ccccc54)nc23)c1F [Example 100] | 2.2% | 
< 1 | < 10 | < 500 | Cc1c(F)cccc1S(=O)(=O)Nc1ccc(F)c(Nc2ncnc3cnc(-n4cc(C(=O)N(C)CCO)c5ccccc54)nc23)c1F [Example 101] | 3.5% | 
< 1 | < 10 | 500 to 1000 | Cc1c(F)cccc1S(=O)(=O)Nc1ccc(F)c(Nc2ncnc3cnc(-n4cc(C(=O)N5CCC(O)CC5)c5ccccc54)nc23)c1F [Example 102] | −9.5% | 
< 1 | < 10 | 500 to 1000 | Cc1c(F)cccc1S(=O)(=O)Nc1ccc(F)c(Nc2ncnc3cnc(-n4cc(C(=O)N5CCC[C@H](O)C5)c5ccccc54)nc23)c1F [Example 103] | −9.9% | 
< 1 | > 50 |  | Cc1c(F)cccc1S(=O)(=O)Nc1ccc(F)c(Nc2ncnc3cnc(-n4nc(C(=O)N5CCN(C)CC5)c5ccccc54)nc23)c1F [Example 104] |  | IC50 (HCT116 pERK; [1]): < 500 nM
1 to 10 | > 50 | < 500 | Cc1c(F)cccc1S(=O)(=O)Nc1ccc(F)c(Nc2ncnc3cnc(-n4nc(C(=O)N(C)C)c5ccccc54)nc23)c1F [Example 105] | −8.7% | 
< 1 | 10 to 50 | < 500 | Cc1c(F)cccc1S(=O)(=O)Nc1ccc(F)c(Nc2ncnc3cnc(-n4nc(C(=O)N(C)Cc5ccncc5)c5ccccc54)nc23)c1F [Example 106] | −2.3% | 
< 1 | 10 to 50 | 500 to 1000 | Cc1c(F)cccc1S(=O)(=O)Nc1ccc(F)c(Nc2ncnc3cnc(-n4nc(C(=O)N(C)CCO)c5ccccc54)nc23)c1F [Example 107] | −5.2% | 
 | 10 to 50 | 1000 to 10000 | Cc1c(F)cccc1S(=O)(=O)Nc1ccc(F)c(Nc2ncnc3cnc(-n4nc(C(=O)N5CCC(O)CC5)c5ccccc54)nc23)c1F [Example 108] | −7.0% | 
< 1 | 10 to 50 | < 500 | Cc1c(F)cccc1S(=O)(=O)Nc1ccc(F)c(Nc2ncnc3cnc(-n4nc(C(=O)N5CCC[C@H](O)C5)c5ccccc54)nc23)c1F [Example 109] | −6.5% | 
< 1 | 10 to 50 | < 500 | Cc1c(F)cccc1S(=O)(=O)Nc1ccc(F)c(Nc2ncnc3cnc(-n4nc(C(=O)N5CCOCC5)c5ccccc54)nc23)c1F [Example 110] | −3.7% | 
1 to 10 | < 10 | < 500 | COc1ccc(S(=O)(=O)Nc2ccc(F)c(Nc3ncnc4cnc(-n5cnc6c(N)cccc65)nc34)c2F)c(C)c1F [Example 111] | −8.1% | 
1 to 10 | 10 to 50 | 500 to 1000 | Cc1c(F)cccc1S(=O)(=O)Nc1ccc(F)c(Nc2ncnc3cnc(-n4cc(S(=O)(=O)N(C)Cc5ccncc5)c5ccccc54)nc23)c1F [Example 113] | −7.0% | 
